Measured values: ChEMBL document CHEMBL5236603, “Discovery of mobocertinib, a potent, oral inhibitor of EGFR exon 20 insertion mutations in non-small cell lung cancer” (Bioorg Med Chem Lett, 2023)

Assays:
[1] = molecular target: Epidermal growth factor receptor (Homo sapiens, UniProt P00533); test: Inhibition of […]-induced EGFR phosphorylation in human A549 cells pretreated for 2 hrs followed by EGF stimulation by immune assay; type: cell-based
[2] = Inhibition of mouse EGFR V769_D770insASV mutant stably expressed in mouse BaF3 cells assessed as cell viability incubated for 3 days by Cell Titer-Glo assay; type: cell-based; settings: BaF3, 72 h
[3] = Inhibition of mouse EGFR D770_N771insNPG mutant stably expressed in mouse BaF3 cells assessed as cell viability incubated for 3 days by Cell Titer-Glo assay; type: cell-based; settings: BaF3, 72 h
[4] = AUClast in CD-1 mouse at 10 mg/kg, po by LC/MS/MS analysis; type: ADME, organism-based; set-up: dose 10 mg/kg, route po; settings: in vivo
[5] = Cmax in CD-1 mouse at 10 mg/kg, po by LC/MS/MS analysis; type: ADME, organism-based; set-up: dose 10 mg/kg, route po; settings: in vivo
[6] = Cmax in CD rat at 5 mg/kg, po by LC/MS/MS analysis; type: ADME, organism-based; set-up: dose 5 mg/kg, route po; settings: in vivo
[7] = AUC (0 to last)in CD rat at 5 mg/kg, po by LC/MS/MS analysis; type: ADME, organism-based; set-up: dose 5 mg/kg, route po; settings: in vivo
[8] = Cmax in CD-1 rat at 10 mg/kg, po by LC/MS/MS analysis; type: ADME, organism-based; set-up: dose 10 mg/kg, route po; settings: in vivo
[9] = AUClast in CD-1 rat at 10 mg/kg, po by LC/MS/MS analysis; type: ADME, organism-based; set-up: dose 10 mg/kg, route po; settings: in vivo
[10] = Inhibition of mouse EGFR delE746_A750 mutant stably expressed in mouse BaF3 cells assessed as cell viability incubated for 3 days by Cell Titer-Glo assay; type: cell-based; settings: BaF3, 72 h
[11] = Inhibition of mouse EGFR Del-T790M double mutant stably expressed in mouse BaF3 cells assessed as cell viability incubated for 3 days by Cell Titer-Glo assay; type: cell-based; settings: BaF3, 72 h

Sequence of Epidermal growth factor receptor (P00533 whole entry): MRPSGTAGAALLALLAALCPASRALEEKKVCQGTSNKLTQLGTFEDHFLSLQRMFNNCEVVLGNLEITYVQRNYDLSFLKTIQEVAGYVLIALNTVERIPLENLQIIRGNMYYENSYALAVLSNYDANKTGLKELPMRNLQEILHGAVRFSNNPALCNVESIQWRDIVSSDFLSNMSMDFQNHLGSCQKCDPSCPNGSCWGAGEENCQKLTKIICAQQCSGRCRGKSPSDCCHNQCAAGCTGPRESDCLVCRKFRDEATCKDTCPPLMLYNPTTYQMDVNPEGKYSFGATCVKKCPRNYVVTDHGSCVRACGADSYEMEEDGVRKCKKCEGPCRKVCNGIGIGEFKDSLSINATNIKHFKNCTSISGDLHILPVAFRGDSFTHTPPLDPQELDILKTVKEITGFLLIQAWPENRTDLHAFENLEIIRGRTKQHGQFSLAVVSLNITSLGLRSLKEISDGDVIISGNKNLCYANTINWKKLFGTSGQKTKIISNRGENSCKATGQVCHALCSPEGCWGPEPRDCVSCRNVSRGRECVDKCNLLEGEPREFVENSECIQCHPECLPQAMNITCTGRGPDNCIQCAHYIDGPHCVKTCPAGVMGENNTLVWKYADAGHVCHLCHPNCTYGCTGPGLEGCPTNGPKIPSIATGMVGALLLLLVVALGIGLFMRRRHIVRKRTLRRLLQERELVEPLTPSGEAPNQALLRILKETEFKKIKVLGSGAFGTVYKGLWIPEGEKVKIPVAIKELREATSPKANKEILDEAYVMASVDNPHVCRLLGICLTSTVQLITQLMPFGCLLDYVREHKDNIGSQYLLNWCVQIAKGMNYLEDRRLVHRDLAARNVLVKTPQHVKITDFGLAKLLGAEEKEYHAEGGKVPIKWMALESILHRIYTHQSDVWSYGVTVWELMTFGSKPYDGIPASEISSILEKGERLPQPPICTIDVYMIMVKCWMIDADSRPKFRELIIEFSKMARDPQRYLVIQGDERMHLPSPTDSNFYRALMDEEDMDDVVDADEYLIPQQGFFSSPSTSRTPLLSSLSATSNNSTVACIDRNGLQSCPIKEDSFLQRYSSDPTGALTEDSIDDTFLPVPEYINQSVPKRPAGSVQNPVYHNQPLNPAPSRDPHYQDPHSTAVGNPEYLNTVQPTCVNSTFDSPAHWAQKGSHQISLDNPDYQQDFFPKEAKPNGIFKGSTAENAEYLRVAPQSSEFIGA

| IC50 [1] | AUC(0-t) [4] | Cmax [5] | Cmax [6] | AUC(0-t) [7] | Cmax [8] | AUC(0-t) [9] | Structure (SMILES) | IC50 [2] | IC50 [3] | IC50 [10] | IC50 [11] |
| --- | --- | --- | --- | --- | --- | --- | --- | --- | --- | --- | --- |
| 36 nM |  |  |  |  |  |  | C=CC(=O)Nc1cc(Nc2ncc(Cl)c(-c3cn4c5c(cccc35)OCC4)n2)c(OC)cc1N(C)CCN(C)C | 35 nM | 15 nM |  |  |
| 15 nM | 105 ng·h/mL | 59 ng/mL | 90 ng/mL | 853 ng·h/mL |  |  | C=CC(=O)Nc1cc(Nc2ncc(-c3cnn(C)c3)c(-c3cn4c5c(cccc35)CCC4)n2)c(OC)cc1N(C)CCN(C)C | 16 nM |  |  |  |
|  | 438 ng·h/mL | 97 ng/mL |  |  | 207 ng/mL | 2680 ng·h/mL | C=CC(=O)Nc1cc(Nc2nccc(-c3cn4c5c(cccc35)OCC4)n2)c(OC)cc1N(C)CCN(C)C | 137 nM | 52 nM |  |  |
| 79 nM | 87 ng·h/mL | 42 ng/mL |  |  | 16 ng/mL | 38 ng·h/mL | C=CC(=O)Nc1cc(Nc2ncc(C(=O)OC(C)C)c(-c3cn(C(C)=O)c4ccccc34)n2)c(OC)cc1N(C)CCN(C)C | 4 nM | 3 nM |  |  |
| 405 nM | 285 ng·h/mL | 81 ng/mL |  |  | 126 ng/mL | 466 ng·h/mL | C=CC(=O)Nc1cc(Nc2nccc(-c3cn4c5c(cccc35)CCC4)n2)c(OC)cc1N(C)CCN(C)C | 197 nM | 54 nM |  |  |
| 39 nM |  |  |  |  |  |  | C=CC(=O)Nc1cc(Nc2ncc(C(=O)OC(C)C)c(-c3cn4c5c(cccc35)CCC4)n2)c(OC)cc1N(C)CCN(C)C | 12.4 nM | 6.57 nM |  |  |
| 19 nM | 129 ng·h/mL | 45 ng/mL |  |  | 113 ng/mL | 1540 ng·h/mL | C=CC(=O)Nc1cc(Nc2ncc(C(=O)OCC)c(-c3cn(C)c4ccccc34)n2)c(OC)cc1N(C)CCN(C)C | 13 nM | 6 nM |  |  |
| 23 nM | 884 ng·h/mL | 218 ng/mL |  |  | 320 ng/mL | 2950 ng·h/mL | C=CC(=O)Nc1cc(Nc2ncc(-c3ccnn3C)c(-c3cn4c5c(cccc35)CCC4)n2)c(OC)cc1N(C)CCN(C)C | 28 nM | 11 nM |  |  |
|  |  |  |  |  |  |  | CN(C)C/C=C/C(=O)Nc1cc2c(Nc3ccc(F)c(Cl)c3)ncnc2cc1O[C@H]1CCOC1 [AFATINIB] | 44 nM | 36 nM | 0.6 nM | 97 nM |
| 142 nM |  |  |  |  |  |  | C=CC(=O)Nc1cc(Nc2ncc(C(=O)OCC(C)C)c(-c3cn(C)c4ccccc34)n2)c(OC)cc1N(C)CCN(C)C | 43 nM | 14 nM |  |  |
| 45 nM | 234 ng·h/mL | 57 ng/mL |  |  | 86 ng/mL | 1140 ng·h/mL | C=CC(=O)Nc1cc(Nc2ncc(-c3ncco3)c(-c3cn4c5c(cccc35)CCC4)n2)c(OC)cc1N(C)CCN(C)C | 29 nM | 9 nM |  |  |
| 15 nM | 22 ng·h/mL | 9 ng/mL |  |  | 38 ng/mL | 427 ng·h/mL | C=CC(=O)Nc1cc(Nc2ncc(-c3nnco3)c(-c3cn4c5c(cccc35)CCC4)n2)c(OC)cc1N(C)CCN(C)C | 13 nM | 6.2 nM |  |  |
| 224 nM |  |  |  |  |  |  | C=CC(=O)Nc1cc(Nc2ncc(C(=O)OC(C)C)c(-c3cn(C4CC4)c4ccccc34)n2)c(OC)cc1N(C)CCN(C)C | 30 nM | 23 nM |  |  |
| 20 nM | 92 ng·h/mL | 31 ng/mL |  |  | 207 ng/mL | 2300 ng·h/mL | C=CC(=O)Nc1cc(Nc2ncc(C(=O)OC)c(-c3cn(C)c4ccccc34)n2)c(OC)cc1N(C)CCN(C)C | 18 nM | 8 nM |  |  |
| 84 nM |  |  |  |  |  |  | C=CC(=O)Nc1cc(Nc2ncc(C(=O)OC3CCC3)c(-c3cn(C)c4ccccc34)n2)c(OC)cc1N(C)CCN(C)C | 28 nM | 9 nM |  |  |
| 32 nM | 102 ng·h/mL | 29 ng/mL |  |  | 110 ng/mL | 1480 ng·h/mL | C=CC(=O)Nc1cc(Nc2ncc(C(=O)OCC)c(-c3cn4c5c(cccc35)CCC4)n2)c(OC)cc1N(C)CCN(C)C | 15 nM | 6.43 nM |  |  |
